Where “and” joins values, the source holds several entries; their conditions need not be identical. Equal entries are not always repeated. Where two headings read alike, the source gives them in different places.

For test [1], the target named is T1, D5D (Rattus norvegicus, UniProt Q920R3).
T1 construct: Rat liver microsomal assay was conducted
Kind of test: Rat liver microsomal assay, conversion of DGLA to AA by D5D. It is filed as biochemical. (Microsomes from liver hold many membrane-bound enzymes, among them those of drug oxidation.)

The subject of test [2] is HCA-7/C29 cells. Kind of test: 8-HOA formation from cellular COX-2-catalyzed DGLA peroxidation (GC/MS) in HCA-7/C29. It is filed as cell-based, human. The note with it: 10 μM compound, DGLA-enriched medium, threshold >0.5 μM in 10^6 cells, control 0.33. On the procedure:
(§1) Colony formation assay was conducted in a total of three human cancer cell lines featuring high levels of COX-2, including HCA-7 (colon cancer), A549 (non-small cell lung cancer), BxPC-3 (pancreatic cancer), upon treatment of iminodibenzyl (10 μM). GC/MS was used to measure 8-HOA formation as described elsewhere.

Test [3] has as its system HCA-7 xenograft tumor. Kind of test: Xenograft tumor model, nude mice bearing HCA-7. It is filed as in vivo. The settings on record: HCA-7 tumor; for [8-HOA]: control 0.03. On the procedure:
(§2) About two million of selected cancer cells, suspended in 50 μL of PBS, were implanted into hind flank of nude mice. Feeding with standard diet for two weeks after the cell implantation (to allow tumors reach the certain size), mice were then placed into the treatment groups. Twenty mice were randomly divided to four experimental groups (vehicle control, DGLA, […] inhibitor, and DGLA+D5D inhibitor combination) in each treatment regime to assess their anti-tumor responses. Two treatment regimes (e.g., treatment applied on every other day or every day up to 4-week) were assessed for their anti-tumor responses in HAC-7 and A459 tumor models. Every day treatment plan was listed in FIG. 9 as xenograft models and treatment example. Tumor growth was monitored twice a week using a digital caliper as well as via ultrasound image system for treatment outcome. Tumor volume was calculated: V=L×W2/2. At the endpoint (4-week treatment), the mice were euthanized, and the tumor tissues were collected, weighted, conducted for other analysis.

The test system of test [4] is Lewis Lung Carcinoma Cells (LLC). Kind of test: Lewis Lung Carcinoma primary tumor growth and metastatic lung tumor formation. The note with it: for Primary Tumor size (mm^3) / 8-HOA (μM) in Blood / Reduced Tumor Growth vs. V.C.: dose every day; for Primary Tumor size (mm^3) / Reduced Tumor Growth vs. V.C.: DGLA 5 mg/mouse, iminodibenzyl i.p. 15 mg/kg; for 8-HOA (μM) in Blood: vehicle 0.015; for Reduced Tumor Growth vs. V.C.: primary tumor; for mice that developed metastatic lung tumor: four-week treatment, Day 28 (combination up to Day 31). It is filed as in vivo, C57/B6 mice. On the procedure:
One million Lewis Lung Carcinoma Cells (LLC,), suspended in 50 μL of PBS, were implanted into front/hind flanks (0.5 million each) of C57/B6 mice. A total of twenty […] mice were divided to four groups: six in vehicle control, six in DGLA+iminodibenzyl combination, three in DGLA (oral), and five in iminodibenzyl (i.p.) group. Every day treatment regimen was started one-week after LLC cells implanted into mice blank. Primary tumor growth was monitored twice a week using a digital caliper as well as via ultrasound image system for treatment outcome. Tumor volume was calculated: […] Tumor Growth Reduction Rate (%, Table 8) in each experiment after 4-week treatment was used to assess their associated anti-tumor responses: […]

For test [5], the system named is A549 xenograft tumor. Kind of test: Xenograft tumor model, nude mice bearing A549. It is filed as in vivo. The note with it: for Tumor Growth Reduction % (vs. Control) / [8-HOA]: A549 (printed A459) tumor, every day, 4-week, DGLA 5 mg/mouse oral, iminodibenzyl 15 mg/kg i.p.; for [8-HOA]: control 0.02. As to the method:
as §2, with “analysis. Tumor Growth Reduction Rate (%, Tables 5, 7) in each experiment after 4-week treatment was used to assess their associated anti-tumor responses: […]” for “analysis.”

For test [6], the system named is HCA-7 (colon cancer). Kind of test: Colony formation assay / cell survival, HCA-7. It is filed as cell-based, human. The settings on record: for Cell Survival Rate: HCA-7/C29, DGLA-enriched media, control 100%. As to the method:
as §1

The test system of test [7] is BxPC-3 xenograft tumor. Kind of test: Xenograft tumor model, nude mice bearing BxPC-3. It is filed as in vivo. The settings on record: BxPC-3 tumor, twice/week up to 4-week, gemcitabine 30 mg/kg, DGLA 8 mg/mouse, iminodibenzyl 25 mg/kg.
Test [8] concerns A549 (non-small cell lung cancer). Kind of test: Colony formation assay / cell survival, A549. It is filed as cell-based, human. The settings on record: A549 (A-495 [sic]), 10 μM, DGLA-enriched media, control 100%. On the procedure:
as §1

Test [9] relates to BxPC-3 (pancreatic cancer). Kind of test: Colony formation assay / cell survival, BxPC-3. The settings on record: 10 μM, DGLA-enriched media, control 100%. It is filed as cell-based, human. As to the method: as §1
The test system of test [10] is BxPC-3 cells. Kind of test: 8-HOA formation from COX-2-catalyzed DGLA peroxidation (GC/MS) in BxPC-3. The settings on record: 10 μM, DGLA-enriched media, control 0.26. It is filed as cell-based, human. As to the method: as §1
The test system of test [11] is A549 cells. Kind of test: 8-HOA formation from COX-2-catalyzed DGLA peroxidation (GC/MS) in A549. It is filed as cell-based, human. The settings on record: A549 (A-495 [sic]) cells; 10 μM; DGLA-enriched media; control 0.29. On the procedure: as §1
Setting [12] is: every day, 4-week, DGLA 5 mg/mouse oral, iminodibenzyl 15 mg/kg i.p.
[13] abbreviates: inhibition of D5D conversion of DGLA to AA, rat liver microsomes, read-out: IC50 (rat microsome).

T1 sequence (Q920R3 whole entry): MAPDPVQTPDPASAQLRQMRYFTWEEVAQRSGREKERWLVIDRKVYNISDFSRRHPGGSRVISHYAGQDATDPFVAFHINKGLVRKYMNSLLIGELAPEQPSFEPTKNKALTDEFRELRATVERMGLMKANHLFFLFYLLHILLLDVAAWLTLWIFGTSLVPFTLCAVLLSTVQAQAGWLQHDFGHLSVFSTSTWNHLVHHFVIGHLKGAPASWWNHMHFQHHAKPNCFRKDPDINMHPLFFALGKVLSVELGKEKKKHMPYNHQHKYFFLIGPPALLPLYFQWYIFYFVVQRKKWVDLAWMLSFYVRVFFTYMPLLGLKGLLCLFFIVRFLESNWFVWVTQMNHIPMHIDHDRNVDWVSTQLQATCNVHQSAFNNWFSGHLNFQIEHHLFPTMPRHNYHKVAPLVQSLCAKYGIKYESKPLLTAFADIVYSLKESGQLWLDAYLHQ

Turning to `COc1cc(/C=C/C(=O)CC(=O)/C=C/c2ccc(O)c(OC)c2)ccc1O` [Cucurmin, curcumin, reference compound], in [1], the 50% inhibitory concentration (IC50) amounted to 148 nM. Further, the “[8-HOA] (HCA-7 cells)” value in test [2] was found to be 0.43 µM.

As to `CC(C)CCOc1ccc(N)cc1` [CP-24879, reference compound], the “[8-HOA] (HCA-7 cells)” value in test [2] turned out to be 0.42 µM.

For the molecule `CCCCC/C=C\C/C=C\C/C=C\CCCCCCC(=O)O` [DGLA, dihomo-γ-linolenic acid], the “Tumor Growth Reduction % (vs. Control)” value in [3] (setting [12]) and in test [5] was “did not deliver any inhibitory effect on tumor growth” throughout. Further, the “[8-HOA]” value in test [3] (setting [12]) amounted to 0.27 µg/g; in [5], 0.22 µg/g. The “Primary Tumor size (mm^3)” value in [4] (Day 14, vehicle 128) turned out to be 106 mm^3; in [4] (Day 21, vehicle 916) it was 908 mm^3; in test [4] (Day 28, vehicle 2956), 2631 mm^3. Also, the “8-HOA (μM) in Blood” value in test [4] (Day 28) stood at 0.31 µM. Also, in [4] (Day 28), the “Reduced Tumor Growth vs. V.C.” value is given as “unable to inhibit primary tumor growth”. For the same molecule, in [4], the “mice that developed metastatic lung tumor” value was “All three mice in this group developed lung tumors”.

Take `c1cc2c(cc1[C@H]1OC[C@H]3[C@@H]1CO[C@@H]3c1ccc3c(c1)OCO3)OCO2` [Sesame, sesamin, reference compound]: the IC50 in test [1] (setting [13]) was found to be 346 nM. Moreover, in [2], the “[8-HOA] (HCA-7 cells)” value was 0.33 µM.

For `O=c1[nH]cc(F)c(=O)[nH]1` [Molecule 5-FU, 5-fluorouracil, reference compound], the “Tumor Growth Reduction % (vs. Control)” value in test [3] (twice/week up to 4-week, 5-FU 30 mg/kg, DGLA 8 mg/mouse, iminodibenzyl 25 mg/kg) amounted to 29%.

On to `C1=Cc2ccccc2Nc2ccccc21` [Iminostilbene, 5H-dibenz[b,f]azepine], for which the “suppression of cancer cell growth” value in test [6] (10 μM, colon cancer cells) is given as “unable to suppress cancer cell growth”. In test [2], the “[8-HOA] (HCA-7 cells)” value is reported as “did not promote 8-HOA formation”.

`Nc1ccn([C@@H]2O[C@H](CO)[C@@H](O)C2(F)F)c(=O)n1` [Gemcitabine]: the “Tumor Growth Reduction % (vs. Control)” value in test [7] is 24%; in [7] (listed as gemcitabine), approximately 24%.

On to `c1ccc2c(c1)CCc1ccccc1N2` [Iminodibenzyl, 10,11-dihydro-5H-dibenz[b,f]azepine], for which the “Cell Survival Rate” value in [8] is listed as 22%; in test [8] (listed as iminodibenyl) it was 22%; in [9], 73%; in test [9] (listed as iminodibenyl), 73%; in test [6] (10 μM), 66%; in test [6] (10 μM, listed as iminodibenyl) it was 66%. In addition, in [6] (Homo sapiens, HCA-7, 48 h, read-out: cell viability), the viability at 10 µM is approximately 66%. The IC50 in test [1] (setting [13]) was 104 nM. Besides, the “[8-HOA] (HCA-7 cells)” value was 0.65 µM in test [2]; > 0.5 µM and 0.65 µM in test [2] (listed as iminodibenzyl). Also, the “[8-HOA]” value came to 0.53 µM in [10], 0.07 µg/g in [3] (setting [12]), 0.83 µM in test [11] and 0.05 µg/g in [5]. Moreover, the “[PGE2] in tumors after 4-week treatment” value in [3] (15 mg/kg every day, vehicle control 2.0 μg/g) stood at 1.6 µg/g; in test [5] (A549 tumor, 15 mg/kg every day, vehicle control 2.0 μg/g) it was 1.5 µg/g. Also, the “[AA] in tumors after 4-week treatment” value in test [3] (15 mg/kg every day, vehicle control 3.5 μg/g) stood at 2.2 µg/g; in test [5] (A549 tumor, 15 mg/kg every day, vehicle control 3.7 μg/g) it was 2.5 µg/g. The “Tumor Growth Reduction % (vs. Control)” value was determined as 17% in test [3] (setting [12]); 17% in [3] (every day, 4-week, DGLA 5 mg/mouse oral, iminodibenzyl 15 mg/kg i.p., listed as Iminodibenzly); 40% in test [5]; 40% in test [5] (listed as Iminodibenzly). Also, the “Primary Tumor size (mm^3)” value is 87 mm^3 in test [4] (Day 14, vehicle 128); 476 mm^3 in [4] (Day 21, vehicle 916); 1153 mm^3 in [4] (Day 28, vehicle 2956). Also, the “Lung tumor(s) per mouse” value in [4] (Day 21, metastatic lung tumors, 1 mouse, vehicle 4) is recorded as 0. The “8-HOA (μM) in Blood” value in test [4] (Day 28) came to 0.021 µM. For the same molecule, the “Reduced Tumor Growth vs. V.C.” value in [4] (Day 28, listed as Iminodibenzy, 15 mg/kg) is reported as 58%; in [4] (Day 28, listed as iminodibenzyl, 15 mg/kg), 58%. Moreover, the “mice that developed metastatic lung tumor” value in test [4] is on record as 1 of four mice.

In general, IC50 refers to the concentration that inhibits the measured activity by half. For orientation: viability means a per cent measure of how many cells are alive, often set against a control.

For the origin of these results see US10639313B2, “Compound for inhibition of delta-5-desaturase (D5D) and treatment of cancer and inflammation” (NDSU Research Foundation, priority 2017, dated 2020).
